Laboratory results: patent publication US8741338B2, “Targeted delivery to human diseases and disorders” (Universidade de Coimbra, priority 2008, dated 2014)

How the values were obtained:
[1] = test system: HMEC-1 cells; test: MTT proliferation assay, cytotoxicity of DXR formulations; format: cell-based; conditions: Homo sapiens, total 96 h
Procedure: (§1) In vitro cytotoxicity of free doxorubicin (DXR) and DXR-containing liposomes was determined for […] and HMEC-1 cells using the MTT (3-(4,5-Dimethylthiazol-2-yl)-2,5-diphenyltetrazolium bromide) proliferation assay (Mosmann, 1983). Briefly, cells were plated in 96-well plates at a density of 8,000 cells per well and incubated with free DXR, non-targeted pH-sensitive (or non-pH-sensitve) liposomes containing DXR or targeted pH-sensitive (or non-pH-sensitve) liposomes containing DXR. Additional controls included free peptide and empty targeted liposomes. Cells were incubated for 1, 3, 24 and 48 h at 37° C. in an atmosphere of 95% humidity and 5% CO2. At the end of the incubation time, cells were gently washed twice with cold PBS to remove DXR and maintained in fresh medium for a total of 96 h. After incubation, the medium was replaced by a solution of 0.5 mg/ml MTT and the cells were further incubated for 4 h at 37° C. in an atmosphere of 95% humidity and 5% CO2. Crystals were dissolved in acidic isopropanol and absorbance in each well was read at 570 nm in a microplate reader (Multiscan EX—Thermo Electron Corporation). IC50 of DXR mediated by the different formulations was determined from the dose/response curves.

[2] = test system: MDA-MB-435S cells; test: as above; format: cell-based; conditions: Homo sapiens, total 96 h
Procedure: as §1

`COc1cccc2c1C(=O)c1c(O)c3c(c(O)c1C2=O)C[C@@](O)(C(=O)CO)C[C@@H]3O[C@H]1C[C@H](N)[C@H](O)[C@H](C)O1` [DXR, Doxorubicin] gave an IC50 ([1]; HMEC-1, HMEC-1, 1 h incubation with drug) of 434 ± 30 nM, an IC50 ([1]; HMEC-1, HMEC-1, 3 h incubation with drug) of 401 ± 59 nM and an IC50 ([1]; HMEC-1, HMEC-1, 24 h incubation with drug) of 72 ± 10 nM. The IC50 ([1]; HMEC-1, HMEC-1, 48 h incubation with drug) was 58 ± 8 nM, the IC50 ([2]; 1 h incubation with drug) was 1610 ± 460 nM and the IC50 ([2]; 3 h incubation with drug) was 1450 ± 270 nM. The IC50 ([2]; 24 h incubation with drug) was 232 ± 45 nM and the IC50 ([2]; 48 h incubation with drug) was 113 ± 78 nM.
